The record followed here is patent US20080300147A1, “Detection and Treatment of Fibrotic Disorders” (priority 2004, published 2008).

Experiment [1] concerns myometrium. To be noted: GnRHa treated group compared to secretory phase tissues. An excerpt: (§1) Western Blot Analysis and Immunohistochemical Localization. For immunoblotting, total protein was isolated from small portions of GnRHa-treated and untreated leiomyoma and myometrium as well as the GnRHa-treated and untreated cells as previously described (Ding, L et al. J Clin Endocrinol Metab, 2004, 89:5549-5557; Chegini, N et al. Mol Cell Endocrinol, 2003, 209:9-16). Following determination of the tissue homogenates and cell lysates protein content an equal amount of sample proteins were subjected to SDS-PAGE and transferred to polyvinyldiene difluoride (PVDF) membrane. The blots were incubated with anti-TIEG antibody, kindly provided by Dr. Thomas Spelsberg, Department of Biochemistry, Mayo Clinic, Rochester, Minn. (Johnsen, S A et al. Oncogene, 2002, 21:5783-90), TGIF, EGR3, p27, p57, Nur77 and Gas1 antibodies purchased from Santa Cruz Biochemical (Santa Cruz, Calif.), IL-11 antibodies purchased from R & D system (Minneapolis, Minn.) for 1 hr at room temperature. […]
(§2) Western Blot Analysis and Immunohistochemical Localization. […] The homogenates' protein contents were determined, and an equal amount was subjected to SDS-PAGE and transferred to polyvinyldiene difluoride membrane.

The subject of experiment [2] is leiomyoma. To be noted: GnRHa treated group compared to secretory phase tissues.
Description: as §1, §2

Experiment [3] has as its system leiomyoma smooth muscle cells (LSMC). Briefly: Realtime PCR mRNA expression in treated LSMC. Type of experiment: cell-based, human. How it is done: Isolation and Culture of Leiomyoma and Myometrial Smooth Muscle Cells. […] Only untreated tissues were used for isolation of LSMC and MSMC. […] LSMC and MSMC were cultured in 6-well plates at an approximate density of 10^6 cells/well in DMEM-supplemented media containing 10% FBS. After reaching visual confluence, the cells were washed in serum-free media and incubated for 24 hrs under serum-free, phenol red-free condition (Chegini, N et al. Mol Hum Reprod, 2002, 8:1071-8).
Quantitative RealTime PCR. Realtime PCR was utilized for verification of 10 differentially expressed and regulated genes identified in leiomyoma and myometrium as well as LSMC and MSMC from untreated and GnRHa-treated cohorts. The selection of these genes was based not only on their expression values (up or downregulation), but classification and biological functions important to leiomyoma growth and regression, regulation by ovarian steroids, GnRHa and TGF-β. They are IL-11, CITED2, Nur77, EGR3, TGIF, TIEG, p27, p57, GAS-1 and GPRK5 representing cytokines, transcription factors, cell cycle regulators and signal transduction.
Determination of TGF-β1 on global gene expression in LSMC and MSMC. All the materials utilized for this study including isolation of leiomyoma and myometrial cells are identical to those described in detail above. To determine the effect of TGF-β1 on global gene expression in LSMC and MSMC, the cells were cultured in 6-well plates at approximate density of 10^6 cells/well in DMEM-supplemented media containing 10% FBS. […] The cells were then treated with 2.5 ng/ml of TGF-β1 (R & D System, Minneapolis, […].) for 2, 6 and 12 hours. […] The cells were washed and then treated with TGF-β1 (2.5 ng/ml) for 2 hours. Parallel experiments using untreated cells were used as controls including an additional control for TGF-β type II receptor antisense and sense experiments.
Total cellular RNA was isolated from LSMC- and MSMC-treated and untreated controls and subjected to microarray analysis. To maintain standard and allow for comparative analysis, the GeneChips used in this study were utilized, simultaneously processed and their gene expression values were subjected to global normalization and transformation. Following these unsupervised assessments the coefficient of variation was calculated for each probe set across all the chips used in this study, and the selected gene expression values of this study were independently subjected to supervised learning including R programming analysis and ANOVA with false discovery rate selected at p<0.001 (Moustakas, A. Immunol Lett, 2002, 82:85-91; Verrecchia, F. et al. J Biol Chem, 2001, 276:17058-17062). The genes identified in these cohorts were analyzed for functional annotation and visualized using Database for Annotation, Visualization, and Integrated Discovery (DAVID) software with integrated GoCharts. Following the analysis, we selected 12 of the differentially expressed and regulated genes, including 10 identified and validated in leiomyoma and myometrium from untreated and GnRHa-treated cohorts, as well as LSMC and MSMC treated in vitro with GnRHa, for validation in response to TGF-β-time dependent action using Realtime PCR. They include IL-11, EGR3, CITED2, TIEG, TGIF, Nur77, p27, p57, GAS-1 and GPRK5. In addition, the expression of Runx1 and Runx2, transcription factors that interact with TGF-β receptor signaling pathways (Zavadil, J. et al. Proc Natl Acad Sci USA, 2001, 98:6686-6691), was validated in LSMC and MSMC as well as in leiomyoma and myometrium from GnRHa-treated and untreated cohorts. Detail description of the materials and methods for Realtime PCR as well as data analysis is provided in Chegini, N. et al. J Soc Gynecol Investig, 2003, 10:161-71.
Isolation and Culture of Leiomyoma and Myometrial Smooth Muscle Cells. Leiomyoma and myometrial smooth muscle cells (LSMC and MSMC) were isolated and cultured as previously described (Chegini, N. et al. Mol Hum Reprod, 2002, 8:1071-1078). […]

[4] abbreviates: GnRHa 0.1 μM, 2, 6 and 12 hours.

Consider `CCNC(=O)[C@@H]1CCCN1C(=O)[C@H](CCCNC(=N)N)NC(=O)[C@H](CC(C)C)NC(=O)[C@@H](CC(C)C)NC(=O)[C@H](Cc1ccc(O)cc1)NC(=O)[C@H](CO)NC(=O)[C@H](Cc1c[nH]c2ccccc12)NC(=O)[C@H](Cc1c[nH]cn1)NC(=O)[C@@H]1CCC(=O)N1` [GnRHa, leuprolide acetate], for which the “FMOD immunoreactive intensity in myometrium” value in experiment [1] is “reduction”. In experiment [2], the “FMOD immunoreactive intensity in leiomyoma” value is listed as “reduction”. Moreover, in experiment [3] (setting [4]), the “CITED2 expression in LSMC” value was “inhibiting” and the “GPRK5 expression in LSMC” value is “inhibits”. In addition, in experiment [3] (GnRHa 0.1 μM, 2, 6 and 12 hrs), the “CCN2 mRNA expression in LSMC” value was “inhibited”, the “CCN3 mRNA expression in LSMC” value is listed as “inhibited”, the “CCN4 mRNA expression in LSMC” value is “inhibited” and the “S100A4 mRNA expression in LSMC” value is listed as “inhibited”. Moreover, the “fibulin-1C mRNA expression in LSMC” value in experiment [3] (GnRHa 0.1 μM, 2, 6 and 12 hrs) is “inhibited”. Besides, the “FMOD expression in LSMC” value in experiment [3] (GnRHa 0.1 μM, 2 and 6 hrs) is given as “no significant effect”. For the same compound, the “FMOD expression in LSMC” value in experiment [3] (GnRHa 0.1 μM, 12 hrs) is on record as “inhibited”. Also, the “IL-11 expression in LSMC” value in experiment [3] (GnRHa 0.1 μM, within 2 to 6 hours, control levels after 12 hours) was “increased”. For the same compound, in experiment [3] (GnRHa 0.1 μM, subsequently fell below untreated levels), the “Nur77 expression in LSMC” value is “rapid induction”.
